In ChEMBL document CHEMBL1201862, “PubChem BioAssay data set” (2004):
Active and inactive are the calls of the source.

Assays:
[1] = target: T1, Acyl-homoserine lactone acylase PvdQ (Pseudomonas aeruginosa (strain LESB58), UniProt Q9I194); experiment: PvdQ acylase enzyme activity blockers – biochemical, fluorescence, plate reader and imaging, cherry-picks, dose response (AID 493231)
T1 sequence (Q9I194 whole entry): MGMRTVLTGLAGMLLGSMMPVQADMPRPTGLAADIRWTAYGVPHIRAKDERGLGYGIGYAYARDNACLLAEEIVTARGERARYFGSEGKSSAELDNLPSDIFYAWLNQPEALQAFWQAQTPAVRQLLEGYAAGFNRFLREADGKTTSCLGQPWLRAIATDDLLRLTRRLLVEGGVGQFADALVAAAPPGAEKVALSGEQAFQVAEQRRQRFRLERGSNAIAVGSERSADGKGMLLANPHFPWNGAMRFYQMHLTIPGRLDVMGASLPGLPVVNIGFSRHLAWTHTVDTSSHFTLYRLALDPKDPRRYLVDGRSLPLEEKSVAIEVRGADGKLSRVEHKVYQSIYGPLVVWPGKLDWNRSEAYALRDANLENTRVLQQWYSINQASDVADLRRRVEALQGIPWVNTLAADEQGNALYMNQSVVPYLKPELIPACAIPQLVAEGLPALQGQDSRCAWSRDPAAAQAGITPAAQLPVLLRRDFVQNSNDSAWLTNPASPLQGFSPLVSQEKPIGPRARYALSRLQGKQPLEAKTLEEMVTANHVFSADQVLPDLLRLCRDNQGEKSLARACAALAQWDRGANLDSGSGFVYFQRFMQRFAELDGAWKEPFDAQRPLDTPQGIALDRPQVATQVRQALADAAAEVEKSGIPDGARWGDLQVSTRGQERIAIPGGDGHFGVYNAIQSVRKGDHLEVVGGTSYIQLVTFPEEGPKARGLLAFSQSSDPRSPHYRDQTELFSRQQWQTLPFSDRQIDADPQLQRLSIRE

HEK293 = experiment: EBV LMP1 TES2 canonical NF-kB signalling blockers – cell-based, HEK293, luciferase, cherry-pick, dose response (AID 588343); format: functional; details: Homo sapiens
[2] = target: Latent membrane protein 1 (Human herpesvirus 4 (strain B95-8), UniProt P03230); experiment: LMP1 TES1 pathway selectivity over dsRED control – imaging, HEK293T, dual-color eGFP/dsRED, cherry-picks, selectivity assay for LMP1 NF-kB inhibitor project, dose response (AID 588398); format: functional, cell-based
[3] = target: DNA dC->dU-editing enzyme APOBEC-3G (Homo sapiens, UniProt Q9HC16); experiment: inhibition of APOBEC3G ssDNA deamination – biochemical, fluorescence, single-stranded DNA substrate, SAR follow-up (AID 602136); format: functional; details: read-out: IC50_Mean
[4] = target: DNA dC->dU-editing enzyme APOBEC-3A (Homo sapiens, UniProt P31941); experiment: SAR analysis of small molecule inhibitors of APOBEC3A DNA Deaminase via a fluorescence-based single-stranded DNA deaminase assay.; format: functional; details: read-out: IC50_Mean
INS1 [5] = experiment: beta-cell survival under cytokine stress – INS-1E, ATP luminescence, dry powder, dose response (AID 488844); format: functional, cell-based; details: Rattus norvegicus
[6] = suppression of NO production in INS-1E cells – cell-based, Griess absorbance, dry powder, set 3, dose response (AID 488870); format: functional; details: Rattus norvegicus
INS1 [7] = experiment: suppression of NO production in INS-1E cells – cell-based, Griess absorbance, dry powder, set 2, dose response (AID 488868); format: functional; details: Rattus norvegicus
Caspase-3 = target: T2, Caspase-3 (Homo sapiens, UniProt P42574); experiment: inhibition of recombinant caspase-3 activity – biochemical, luminescence, set 2, selectivity assay for SENP protease inhibitor project, SAR follow-up (AID 588599); format: functional
T2 sequence (P42574 whole entry): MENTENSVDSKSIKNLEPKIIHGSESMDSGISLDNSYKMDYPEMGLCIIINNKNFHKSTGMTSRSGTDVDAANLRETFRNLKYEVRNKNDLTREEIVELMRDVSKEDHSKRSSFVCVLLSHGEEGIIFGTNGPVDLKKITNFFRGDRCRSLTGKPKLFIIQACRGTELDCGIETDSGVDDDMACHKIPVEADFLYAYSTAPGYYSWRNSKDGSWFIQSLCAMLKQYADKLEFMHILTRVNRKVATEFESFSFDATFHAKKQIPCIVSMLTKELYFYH

[8] = target: T3, Sentrin-specific protease 8 (Homo sapiens, UniProt Q96LD8); experiment: inhibition of sentrin protease 8 – biochemical, luminescence, set 2, SAR follow-up (AID 588601); format: functional
T3 sequence (Q96LD8 whole entry): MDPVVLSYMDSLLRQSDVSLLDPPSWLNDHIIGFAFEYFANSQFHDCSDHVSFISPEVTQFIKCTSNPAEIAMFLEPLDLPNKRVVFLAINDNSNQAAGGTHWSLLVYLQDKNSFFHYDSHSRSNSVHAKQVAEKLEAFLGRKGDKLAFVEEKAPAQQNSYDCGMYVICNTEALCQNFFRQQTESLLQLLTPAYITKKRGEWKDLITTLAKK

[9] = target: T4, Sentrin-specific protease 7 (Homo sapiens, UniProt Q9BQF6); experiment: inhibition of human SENP7 cleavage activity – biochemical, luminescence, set 2, SAR follow-up (AID 588600); format: functional
T4 sequence (Q9BQF6 whole entry): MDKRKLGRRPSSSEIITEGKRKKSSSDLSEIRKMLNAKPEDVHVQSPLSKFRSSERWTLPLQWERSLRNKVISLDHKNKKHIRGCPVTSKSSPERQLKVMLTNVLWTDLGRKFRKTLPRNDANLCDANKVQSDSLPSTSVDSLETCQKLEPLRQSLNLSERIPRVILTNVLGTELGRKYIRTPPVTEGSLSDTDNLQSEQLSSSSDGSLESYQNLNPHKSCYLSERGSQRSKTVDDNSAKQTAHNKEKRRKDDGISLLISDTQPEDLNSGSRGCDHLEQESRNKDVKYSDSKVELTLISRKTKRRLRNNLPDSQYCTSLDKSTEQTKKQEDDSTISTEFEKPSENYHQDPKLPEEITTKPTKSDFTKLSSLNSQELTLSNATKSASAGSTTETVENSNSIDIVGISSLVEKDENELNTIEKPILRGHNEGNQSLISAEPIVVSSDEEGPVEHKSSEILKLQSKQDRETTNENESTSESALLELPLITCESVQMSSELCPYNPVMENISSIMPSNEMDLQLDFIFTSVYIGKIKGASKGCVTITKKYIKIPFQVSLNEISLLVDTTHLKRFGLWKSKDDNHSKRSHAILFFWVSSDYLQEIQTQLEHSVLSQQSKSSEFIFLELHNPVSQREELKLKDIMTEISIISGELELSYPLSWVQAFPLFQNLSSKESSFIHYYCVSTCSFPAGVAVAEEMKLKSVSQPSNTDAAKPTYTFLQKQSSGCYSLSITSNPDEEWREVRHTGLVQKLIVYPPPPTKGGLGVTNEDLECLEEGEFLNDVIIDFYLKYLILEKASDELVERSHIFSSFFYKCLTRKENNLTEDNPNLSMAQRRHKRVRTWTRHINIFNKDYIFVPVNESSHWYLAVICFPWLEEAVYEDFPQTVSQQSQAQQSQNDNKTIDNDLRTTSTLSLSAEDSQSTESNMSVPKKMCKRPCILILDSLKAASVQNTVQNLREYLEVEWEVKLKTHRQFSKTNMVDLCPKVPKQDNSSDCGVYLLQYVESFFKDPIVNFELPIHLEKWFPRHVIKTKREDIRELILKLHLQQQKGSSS

[10] = target: T5, Sentrin-specific protease 6 (Homo sapiens, UniProt Q9GZR1); experiment: inhibition of human SENP6 catalytic domain – biochemical, luminescence, set 2, SAR follow-up (AID 588598); format: functional
T5 sequence (Q9GZR1 whole entry): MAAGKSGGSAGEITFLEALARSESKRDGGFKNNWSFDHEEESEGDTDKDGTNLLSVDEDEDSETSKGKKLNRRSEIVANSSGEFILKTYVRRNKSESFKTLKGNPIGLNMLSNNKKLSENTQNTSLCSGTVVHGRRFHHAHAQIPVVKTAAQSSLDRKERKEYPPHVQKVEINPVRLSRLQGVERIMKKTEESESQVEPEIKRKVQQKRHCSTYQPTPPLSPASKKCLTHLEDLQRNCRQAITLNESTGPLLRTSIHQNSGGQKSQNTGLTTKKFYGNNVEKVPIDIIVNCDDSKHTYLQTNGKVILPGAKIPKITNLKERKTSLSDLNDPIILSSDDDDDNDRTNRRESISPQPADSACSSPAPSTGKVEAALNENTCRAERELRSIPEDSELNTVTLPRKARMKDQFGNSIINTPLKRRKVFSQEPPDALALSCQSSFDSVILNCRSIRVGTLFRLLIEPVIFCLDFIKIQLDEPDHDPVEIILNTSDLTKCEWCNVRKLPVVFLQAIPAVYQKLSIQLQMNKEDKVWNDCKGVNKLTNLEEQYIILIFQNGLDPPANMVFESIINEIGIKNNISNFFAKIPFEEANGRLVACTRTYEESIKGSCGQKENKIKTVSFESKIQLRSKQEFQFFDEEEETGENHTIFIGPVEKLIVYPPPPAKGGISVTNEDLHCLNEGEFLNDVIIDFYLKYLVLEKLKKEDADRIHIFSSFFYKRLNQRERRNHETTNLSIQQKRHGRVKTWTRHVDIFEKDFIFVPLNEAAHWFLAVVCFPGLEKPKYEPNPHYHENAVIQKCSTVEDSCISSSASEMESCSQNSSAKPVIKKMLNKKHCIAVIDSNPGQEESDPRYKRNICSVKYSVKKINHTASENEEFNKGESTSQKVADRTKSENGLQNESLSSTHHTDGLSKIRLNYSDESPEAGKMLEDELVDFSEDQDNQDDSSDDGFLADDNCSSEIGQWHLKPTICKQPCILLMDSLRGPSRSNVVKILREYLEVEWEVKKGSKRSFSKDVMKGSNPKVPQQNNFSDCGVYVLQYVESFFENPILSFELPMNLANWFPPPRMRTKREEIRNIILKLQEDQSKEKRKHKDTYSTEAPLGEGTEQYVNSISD

Chain of DNA dC->dU-editing enzyme APOBEC-3A (P31941 whole entry): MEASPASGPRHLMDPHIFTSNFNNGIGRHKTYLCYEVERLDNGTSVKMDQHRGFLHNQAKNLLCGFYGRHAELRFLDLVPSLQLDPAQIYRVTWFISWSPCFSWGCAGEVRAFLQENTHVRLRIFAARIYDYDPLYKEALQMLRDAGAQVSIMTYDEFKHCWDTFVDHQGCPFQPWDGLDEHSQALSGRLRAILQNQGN
Chain of Latent membrane protein 1 (P03230 whole entry): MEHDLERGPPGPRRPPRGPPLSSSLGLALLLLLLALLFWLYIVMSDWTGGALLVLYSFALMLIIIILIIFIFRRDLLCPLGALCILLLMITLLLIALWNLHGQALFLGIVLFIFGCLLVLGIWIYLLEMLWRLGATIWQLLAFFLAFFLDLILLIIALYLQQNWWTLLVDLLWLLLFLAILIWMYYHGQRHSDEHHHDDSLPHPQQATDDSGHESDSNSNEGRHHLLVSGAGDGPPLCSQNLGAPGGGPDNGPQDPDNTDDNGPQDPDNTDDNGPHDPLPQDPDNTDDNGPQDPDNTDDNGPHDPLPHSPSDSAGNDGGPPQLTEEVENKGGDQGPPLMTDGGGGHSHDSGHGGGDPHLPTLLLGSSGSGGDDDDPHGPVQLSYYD
Chain of DNA dC->dU-editing enzyme APOBEC-3G (Q9HC16 whole entry): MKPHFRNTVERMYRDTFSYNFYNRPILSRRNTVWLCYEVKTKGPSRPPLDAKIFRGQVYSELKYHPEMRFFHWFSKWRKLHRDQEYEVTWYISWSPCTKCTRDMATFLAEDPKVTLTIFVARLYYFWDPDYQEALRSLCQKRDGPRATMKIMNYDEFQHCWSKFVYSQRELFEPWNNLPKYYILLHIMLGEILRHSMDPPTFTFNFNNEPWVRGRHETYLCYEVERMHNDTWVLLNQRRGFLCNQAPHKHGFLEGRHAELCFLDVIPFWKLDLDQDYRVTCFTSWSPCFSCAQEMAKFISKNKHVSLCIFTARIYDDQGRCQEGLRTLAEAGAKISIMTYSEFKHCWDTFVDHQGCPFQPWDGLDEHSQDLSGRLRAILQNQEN

Question: For `Cc1cc(NC(=O)c2ccc3c(c2)OCCO3)no1`, which AC50 [1] is on record?
Answer: Its AC50 is 49.6 µM (active).

Question: And the AC50 (HEK293)?
Answer: Its AC50 is 4.15 µM (active).

Question: And the AC50 [2]?
Answer: Its AC50 is 32.7 µM (active).

Question: With `CCc1nnc(NC(=O)Cc2c(F)cccc2Cl)s1` as the compound, how does the IC50 [3] read?
Answer: The IC50 was > 99 µM (inactive).

Question: What about the IC50 [4] of the same compound?
Answer: Its IC50 is > 99 µM (inactive).

Question: Which results are given for `C[C@@H]1CN([C@@H](C)CO)C(=O)c2cccc(NC(=O)Nc3cccc4ccccc34)c2O[C@H]1CN(C)S(=O)(=O)c1ccc2c(c1)OCO2`?
Answer: AC50 (INS1 [5]): 49.4 µM (active); AC50 [6]: > 195 µM (inactive); AC50 (INS1 [7]): 29.8 µM (active)

Question: Which results are given for `O=C(N/N=C/c1c[nH]c2ccccc12)C1CC1c1ccccc1` (configuration not stated)?
Answer: IC50 (Caspase-3): > 99 µM (inactive); IC50 [8]: > 99 µM (inactive); IC50 [9]: > 99 µM (inactive); IC50 [10]: > 99 µM (inactive)
